Common to all, as to experiment: Kinase Assay
Test [1] has as its target Fibroblast growth factor receptor 2 (Homo sapiens, UniProt P21802). How it is done: (§1) Kinase-tagged T7 phage strains were prepared in an E. coli host derived from the BL21 strain. E. coli were grown to log-phase and infected with T7 phage and incubated with shaking at 32° C. until lysis. The lysates were centrifuged and filtered to remove cell debris. […] The liganded beads were blocked with excess biotin and washed with blocking buffer SeaBlock (Pierce), […], 1 mM DTT to remove unbound ligand and to reduce non-specific binding. […] Kds were determined using an 11-point 3-fold compound dilution series with three DMSO control points. […] The compounds were then diluted directly into the assays such that the final concentration of DMSO was 0.9%. All reactions performed in polypropylene 384-well plate. Each was a final volume of 0.02 ml.

Test [2] concerns the target Fibroblast growth factor receptor 4 (Homo sapiens, UniProt P22455). On the procedure:
as §1

Test [3] concerns the target Fibroblast growth factor receptor 1 (Homo sapiens, UniProt P11362). How it is done: as §1

A value given as a limit tells only on which side of the number the result lay.

Broadly, the Kd is the equilibrium constant for the complex coming apart.

Chain of Fibroblast growth factor receptor 1 (P11362 whole entry): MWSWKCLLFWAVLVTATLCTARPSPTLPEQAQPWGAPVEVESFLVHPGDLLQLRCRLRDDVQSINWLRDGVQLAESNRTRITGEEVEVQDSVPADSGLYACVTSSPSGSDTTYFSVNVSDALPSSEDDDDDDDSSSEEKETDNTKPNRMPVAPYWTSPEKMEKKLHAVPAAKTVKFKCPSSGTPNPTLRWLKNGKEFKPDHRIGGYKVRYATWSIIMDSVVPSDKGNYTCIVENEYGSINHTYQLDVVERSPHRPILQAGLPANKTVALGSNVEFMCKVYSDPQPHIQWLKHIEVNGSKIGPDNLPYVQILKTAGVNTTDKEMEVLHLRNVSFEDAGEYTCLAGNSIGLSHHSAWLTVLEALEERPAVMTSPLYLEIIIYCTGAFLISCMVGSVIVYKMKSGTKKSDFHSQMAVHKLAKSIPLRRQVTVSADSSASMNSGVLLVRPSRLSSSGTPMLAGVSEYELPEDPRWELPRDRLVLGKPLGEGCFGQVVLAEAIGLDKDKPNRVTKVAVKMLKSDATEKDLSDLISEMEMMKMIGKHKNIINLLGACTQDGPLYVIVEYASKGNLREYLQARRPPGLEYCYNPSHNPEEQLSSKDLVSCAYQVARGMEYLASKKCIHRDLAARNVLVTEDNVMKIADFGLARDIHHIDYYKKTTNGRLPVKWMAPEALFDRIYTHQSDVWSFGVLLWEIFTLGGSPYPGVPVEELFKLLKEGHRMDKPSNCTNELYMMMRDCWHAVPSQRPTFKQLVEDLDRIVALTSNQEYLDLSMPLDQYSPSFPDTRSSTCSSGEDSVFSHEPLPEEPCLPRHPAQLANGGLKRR
Chain of Fibroblast growth factor receptor 2 (P21802 whole entry): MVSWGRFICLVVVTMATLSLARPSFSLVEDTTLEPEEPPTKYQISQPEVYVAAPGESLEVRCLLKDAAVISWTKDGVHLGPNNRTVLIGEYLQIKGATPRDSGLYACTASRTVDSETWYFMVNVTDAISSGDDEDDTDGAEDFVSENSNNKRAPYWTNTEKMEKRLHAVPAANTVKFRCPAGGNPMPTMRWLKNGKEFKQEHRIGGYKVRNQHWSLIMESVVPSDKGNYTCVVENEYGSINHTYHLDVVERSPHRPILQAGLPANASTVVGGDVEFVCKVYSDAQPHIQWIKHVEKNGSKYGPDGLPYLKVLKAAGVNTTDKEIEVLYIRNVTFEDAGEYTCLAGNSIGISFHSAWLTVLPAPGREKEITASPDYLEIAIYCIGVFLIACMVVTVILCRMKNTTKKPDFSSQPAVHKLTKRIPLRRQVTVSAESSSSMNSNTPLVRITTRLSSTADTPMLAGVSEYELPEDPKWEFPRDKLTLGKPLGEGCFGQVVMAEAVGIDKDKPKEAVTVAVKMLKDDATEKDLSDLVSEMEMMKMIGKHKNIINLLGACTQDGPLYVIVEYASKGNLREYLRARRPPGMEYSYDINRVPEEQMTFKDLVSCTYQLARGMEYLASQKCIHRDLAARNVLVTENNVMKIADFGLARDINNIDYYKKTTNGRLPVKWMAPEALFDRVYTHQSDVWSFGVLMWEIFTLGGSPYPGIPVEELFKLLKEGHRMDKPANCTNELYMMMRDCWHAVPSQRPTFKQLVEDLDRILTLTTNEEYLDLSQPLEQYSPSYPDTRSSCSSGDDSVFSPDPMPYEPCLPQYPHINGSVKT
Chain of Fibroblast growth factor receptor 4 (P22455 whole entry): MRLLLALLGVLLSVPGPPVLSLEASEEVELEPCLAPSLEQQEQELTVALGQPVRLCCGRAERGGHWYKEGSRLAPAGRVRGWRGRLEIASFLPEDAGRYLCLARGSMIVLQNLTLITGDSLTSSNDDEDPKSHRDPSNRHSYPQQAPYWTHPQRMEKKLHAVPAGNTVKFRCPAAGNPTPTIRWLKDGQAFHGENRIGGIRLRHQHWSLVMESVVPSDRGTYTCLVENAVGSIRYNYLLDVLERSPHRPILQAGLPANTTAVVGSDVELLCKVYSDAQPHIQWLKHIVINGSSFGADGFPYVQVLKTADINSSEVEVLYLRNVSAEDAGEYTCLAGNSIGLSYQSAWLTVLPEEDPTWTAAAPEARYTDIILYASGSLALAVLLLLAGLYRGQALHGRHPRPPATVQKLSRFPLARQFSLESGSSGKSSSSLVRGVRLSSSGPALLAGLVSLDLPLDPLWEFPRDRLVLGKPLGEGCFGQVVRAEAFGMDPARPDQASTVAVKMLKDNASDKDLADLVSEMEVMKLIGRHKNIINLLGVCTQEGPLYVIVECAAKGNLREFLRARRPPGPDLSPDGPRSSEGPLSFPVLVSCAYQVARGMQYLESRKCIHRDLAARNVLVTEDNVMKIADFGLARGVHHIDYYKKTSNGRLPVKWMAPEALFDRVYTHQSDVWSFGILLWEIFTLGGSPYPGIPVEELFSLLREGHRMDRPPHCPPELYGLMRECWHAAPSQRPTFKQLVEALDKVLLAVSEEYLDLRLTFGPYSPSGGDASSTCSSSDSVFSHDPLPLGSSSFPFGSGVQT

In turn, `Cc1cnnc(C)c1[C@@H](C)Oc1ccc2[nH]nc(-c3cnc(N4CCCC4)c(C#N)c3)c2c1` [US20240109865, Example 173.] showed a Kd in test [1] above 300 nM.
Regarding `C[C@@H](Oc1ccc2[nH]nc(-c3ccc(N4CC5(CCOC5)C4)nc3)c2c1)c1c(Cl)cnnc1Cl` [US20240109865, Example 223.], the Kd in test [2] and in test [3] was above 300 nM in each case.

(Values after BindingDB's records for patent US20240109865 (Tyra Biosciences, 2024).)
